Experimental data: patent US6380134B1, “N-pyridyl herbicide compounds” (Syngenta Crop Protection, Inc., priority 1998, dated 2002)
Several values for one entry are separate records, joined by “and”; a condition that tells them apart may be missing. Equal values may be shown once. Values belong to the compound of their own block, whether it stands above or below them.

Experiments:
Setaria [1] = assay: Herbicidal action before plant emergence (pre-emergence action); assay type: in vivo; set-up: key: 1=complete damage; 9=no effect; Score figures of 1 to 4 (in particular 1 to 3) signify a good to very good herbicidal action; conditions: 2000 g a.i./ha sprayed immediately after sowing; evaluated after 3 weeks; nine-level key (1=complete damage, 9=no effect)
Text: (§1) Monocotyledonous and dicotyledonous test plants are sown in standard soil in plastic pots. Immediately after sowing, the test substances are sprayed on as aqueous suspensions (prepared from a 25% strength wettable powder (Example F3, b) in accordance with WO 97/34485) or as emulsions (prepared from a 25% strength emulsion concentrate (Example F1, c) in accordance with WO 97/34485), corresponding to a dosage of 2 kg of a.i./ha (500 l of water/ha). The test plants are subsequently grown in the greenhouse under optimal conditions. After a test period of 3 weeks, the experiment is evaluated using a nine-level key (1=complete damage, 9=no effect). Score figures of 1 to 4 (in particular 1 to 3) signify a good to very good herbicidal action.
(§2) Test plants: Lolium, Setaria, Sinapis, Solanum, Stellaria, Ipomea.

Ipomoea [2] = assay: as above; assay type: in vivo; set-up: key: 1=complete damage; 9=no effect; Score figures of 1 to 4 (in particular 1 to 3) signify a good to very good herbicidal action; conditions: 2000 g a.i./ha sprayed immediately after sowing; evaluated after 3 weeks; nine-level key (1=complete damage, 9=no effect)
Text: as §1, §2

Lolium [3] = assay: as above; assay type: in vivo; set-up: key: 1=complete damage; 9=no effect; Score figures of 1 to 4 (in particular 1 to 3) signify a good to very good herbicidal action; conditions: 2000 g a.i./ha sprayed immediately after sowing; evaluated after 3 weeks; nine-level key (1=complete damage, 9=no effect)
Text: as §1, §2

Stellaria [4] = assay: as above; assay type: in vivo; set-up: key: 1=complete damage; 9=no effect; Score figures of 1 to 4 (in particular 1 to 3) signify a good to very good herbicidal action; conditions: 2000 g a.i./ha sprayed immediately after sowing; evaluated after 3 weeks; nine-level key (1=complete damage, 9=no effect)
Text: as §1, §2

Sinapis [5] = assay: as above; assay type: in vivo; set-up: key: 1=complete damage; 9=no effect; Score figures of 1 to 4 (in particular 1 to 3) signify a good to very good herbicidal action; conditions: 2000 g a.i./ha sprayed immediately after sowing; evaluated after 3 weeks; nine-level key (1=complete damage, 9=no effect)
Text: as §1, §2

Solanum [6] = assay: as above; assay type: in vivo; set-up: key: 1=complete damage; 9=no effect; Score figures of 1 to 4 (in particular 1 to 3) signify a good to very good herbicidal action; conditions: 2000 g a.i./ha sprayed immediately after sowing; evaluated after 3 weeks; nine-level key (1=complete damage, 9=no effect)
Text: as §1, §2

Setaria [7] = assay: Post-emergence herbicidal action; assay type: in vivo; set-up: key: 1=complete damage; 9=no effect; Score figures of 1 to 4 (in particular 1 to 3) signify a good to very good herbicidal action; conditions: dose 2000 g a.i./ha; sprayed at 4- to 6-leaf stage; evaluated after approximately 18 days; nine-level key (1=complete damage, 9=no effect)
Procedure: (§3) Monocotyledonous and dicotyledonous test plants are grown in the greenhouse in plastic pots containing standard soil and, in the 4- to 6-leaf stage, sprayed with an aqueous suspension of the test substances of the formula I, prepared from a 25% strength wettable powder (Example F3, b) in accordance with WO 97/34485) or with an emulsion of the test substances of the formula I, prepared from a 25% strength emulsion concentrate (Example F1, c) in accordance with WO 97/34485), corresponding to a dosage of 2 kg/ a.i./ha (500 l of water/ha). The test plants are subsequently grown on in the greenhouse under optimal conditions. After a test period of approximately 18 days, the experiment is evaluated using a nine-level key (1=complete damage, 9=no effect). Score figures of 1 to 4 (in particular 1 to 3) signify a good to very good herbicidal action.
as §2

Ipomoea [8] = assay: Post-emergence herbicidal action; assay type: in vivo; set-up: key: 1=complete damage; 9=no effect; Score figures of 1 to 4 (in particular 1 to 3) signify a good to very good herbicidal action; conditions: dose 2000 g a.i./ha; sprayed at 4- to 6-leaf stage; evaluated after approximately 18 days; nine-level key (1=complete damage, 9=no effect)
Procedure: as §3, §2

Lolium [9] = assay: Post-emergence herbicidal action; assay type: in vivo; set-up: key: 1=complete damage; 9=no effect; Score figures of 1 to 4 (in particular 1 to 3) signify a good to very good herbicidal action; conditions: dose 2000 g a.i./ha; sprayed at 4- to 6-leaf stage; evaluated after approximately 18 days; nine-level key (1=complete damage, 9=no effect)
Procedure: as §3, §2

Stellaria [10] = assay: Post-emergence herbicidal action; assay type: in vivo; set-up: key: 1=complete damage; 9=no effect; Score figures of 1 to 4 (in particular 1 to 3) signify a good to very good herbicidal action; conditions: dose 2000 g a.i./ha; sprayed at 4- to 6-leaf stage; evaluated after approximately 18 days; nine-level key (1=complete damage, 9=no effect)
Procedure: as §3, §2

Sinapis [11] = assay: Post-emergence herbicidal action; assay type: in vivo; set-up: key: 1=complete damage; 9=no effect; Score figures of 1 to 4 (in particular 1 to 3) signify a good to very good herbicidal action; conditions: dose 2000 g a.i./ha; sprayed at 4- to 6-leaf stage; evaluated after approximately 18 days; nine-level key (1=complete damage, 9=no effect)
Procedure: as §3, §2

Solanum [12] = assay: Post-emergence herbicidal action; assay type: in vivo; set-up: key: 1=complete damage; 9=no effect; Score figures of 1 to 4 (in particular 1 to 3) signify a good to very good herbicidal action; conditions: dose 2000 g a.i./ha; sprayed at 4- to 6-leaf stage; evaluated after approximately 18 days; nine-level key (1=complete damage, 9=no effect)
Procedure: as §3, §2

melting point: 200 to 202 °C
SMILES: Cn1c(C(F)(F)F)cc(=O)n(-c2nc(O)c(Cl)cc2F)c1=O [1.002, 1-(2-hydroxy-3-chloro-5-fluoropyridine-6-yl)-3-methyl-4-trifluoromethylpyrimidine-2,6-dione]
Pre-emergence action, score, test plant Setaria (Setaria [1]): 1
Pre-emergence action, score, test plant Ipomoea (Ipomoea [2]): 1
Pre-emergence action, score, test plant Lolium (Lolium [3]): 7
Pre-emergence action, score, test plant Stellaria (Stellaria [4]): 5
Pre-emergence action, score, test plant Sinapis (Sinapis [5]): 1
Pre-emergence action, score, test plant Solanum (Solanum [6]): 1
Post-emergence action, score, Setaria (Setaria [7]): 5
Post-emergence action, score, Ipomoea (Ipomoea [8]): 1
Post-emergence action, score, Lolium (Lolium [9]): 6
Post-emergence action, score, Stellaria (Stellaria [10]): 5
Post-emergence action, score, Sinapis (Sinapis [11]): 2
Post-emergence action, score, Solanum (Solanum [12]): 1

melting point: 192 to 193 °C
SMILES: N#Cc1cc(F)c(N2C(=O)C3CCCCN3C2=O)nc1Cl (stereo not drawn) [Example H8, 2-(3-fluoro-6-chloro-5-cyano-2-pyridyl)tetrahydroimidazo[1,5-a]pyridine-1,3-dione]

melting point: 121 to 122 °C and 119 to 121 °C
SMILES: C#CCOc1nc(-n2c(=O)cc(C(F)(F)F)n(C)c2=O)c(F)cc1Cl [1.022, 1-(2-propargyloxy-3-chloro-5-fluoropyridine-6-yl)-3-methyl-4-trifluoromethylpyrimidine-2,6-dione]
Pre-emergence action, score, test plant Setaria (Setaria [1]): 1
Pre-emergence action, score, test plant Ipomoea (Ipomoea [2]): 1
Pre-emergence action, score, test plant Lolium (Lolium [3]): 1
Pre-emergence action, score, test plant Stellaria (Stellaria [4]): 1
Pre-emergence action, score, test plant Sinapis (Sinapis [5]): 1
Pre-emergence action, score, test plant Solanum (Solanum [6]): 1
Post-emergence action, score, Setaria (Setaria [7]): 1
Post-emergence action, score, Ipomoea (Ipomoea [8]): 1
Post-emergence action, score, Lolium (Lolium [9]): 1
Post-emergence action, score, Stellaria (Stellaria [10]): 1
Post-emergence action, score, Sinapis (Sinapis [11]): 1
Post-emergence action, score, Solanum (Solanum [12]): 1

SMILES: Cn1c(C(F)(F)F)cc(=O)n(-c2nc(OCC(F)(F)F)c(Cl)cc2F)c1=O [1.365]
Pre-emergence action, score, test plant Setaria (Setaria [1]): 1
Pre-emergence action, score, test plant Ipomoea (Ipomoea [2]): 1
Pre-emergence action, score, test plant Lolium (Lolium [3]): 1
Pre-emergence action, score, test plant Stellaria (Stellaria [4]): 1
Pre-emergence action, score, test plant Sinapis (Sinapis [5]): 1
Pre-emergence action, score, test plant Solanum (Solanum [6]): 1
Post-emergence action, score, Setaria (Setaria [7]): 1
Post-emergence action, score, Ipomoea (Ipomoea [8]): 1
Post-emergence action, score, Lolium (Lolium [9]): 1
Post-emergence action, score, Stellaria (Stellaria [10]): 1
Post-emergence action, score, Sinapis (Sinapis [11]): 1
Post-emergence action, score, Solanum (Solanum [12]): 1

SMILES: C=CCOc1nc(-n2c(=O)cc(C(F)(F)F)n(C)c2=O)c(F)cc1Cl [1.020]
Pre-emergence action, score, test plant Setaria (Setaria [1]): 1
Pre-emergence action, score, test plant Ipomoea (Ipomoea [2]): 1
Pre-emergence action, score, test plant Lolium (Lolium [3]): 1
Pre-emergence action, score, test plant Stellaria (Stellaria [4]): 1
Pre-emergence action, score, test plant Sinapis (Sinapis [5]): 1
Pre-emergence action, score, test plant Solanum (Solanum [6]): 1
Post-emergence action, score, Setaria (Setaria [7]): 1
Post-emergence action, score, Ipomoea (Ipomoea [8]): 1
Post-emergence action, score, Lolium (Lolium [9]): 1
Post-emergence action, score, Stellaria (Stellaria [10]): 1
Post-emergence action, score, Sinapis (Sinapis [11]): 1
Post-emergence action, score, Solanum (Solanum [12]): 1

SMILES: CCOC(=O)COc1nc(-n2c(=O)cc(C(F)(F)F)n(C)c2=O)c(F)cc1Cl [1.047]
Pre-emergence action, score, test plant Setaria (Setaria [1]): 1
Pre-emergence action, score, test plant Ipomoea (Ipomoea [2]): 1
Pre-emergence action, score, test plant Lolium (Lolium [3]): 5
Pre-emergence action, score, test plant Stellaria (Stellaria [4]): 7
Pre-emergence action, score, test plant Sinapis (Sinapis [5]): 1
Pre-emergence action, score, test plant Solanum (Solanum [6]): 1
Post-emergence action, score, Setaria (Setaria [7]): 1
Post-emergence action, score, Ipomoea (Ipomoea [8]): 1
Post-emergence action, score, Lolium (Lolium [9]): 3
Post-emergence action, score, Stellaria (Stellaria [10]): 4
Post-emergence action, score, Sinapis (Sinapis [11]): 1
Post-emergence action, score, Solanum (Solanum [12]): 1
